What all share (type): biochemical
In one assay the target is CDK4/cyclin D1 (Homo sapiens (Human), UniProt P11802). Briefly: CDK4/Cyclin D1 enzymatic activity assay (Lance TR-FRET). Particulars: Table 2; 3 μM ATP; read-out: CDK4. The gist of the method:
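IC50 from a TR-FRET endpoint read of phospho-pRb(S780) after EDTA quench. Reaction: 60 min, room temperature, 3 μM ATP, 175 nM pRb152 substrate, 0.3 nM Sf21-derived His6-CDK4/GST-cyclin D1, pH 7.5 HEPES with MgCl2/MnCl2, 2% DMSO, inhibitor 0.005-10 μM.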

For another assay, the target named is CDK1/cyclin B (Homo sapiens (Human), UniProt P06493). Briefly: CDK1/Cyclin B enzymatic activity assay (IMAP-FP). The note with it: Table 2; 20 μM ATP; read-out: CDK1. The text has this:
A 384-well microtiter IMAP-FPT™ (Molecular Devices Trade Mark Technology) endpoint assay was used for CDK1/cyclin B kinase activity measurements. The same assay was used for IC50 determination of small molecule inhibitors.

In another assay the target is CDK2/cyclin A (Homo sapiens (Human), UniProt P24941). Put plainly: CDK2/Cyclin A enzymatic activity assay (IMAP-FP). The note with it: Table 2; read-out: CDK2.

Bounds are passed on as bounds.

CDK1/cyclin B, sequence (P06493 whole entry, species assumed): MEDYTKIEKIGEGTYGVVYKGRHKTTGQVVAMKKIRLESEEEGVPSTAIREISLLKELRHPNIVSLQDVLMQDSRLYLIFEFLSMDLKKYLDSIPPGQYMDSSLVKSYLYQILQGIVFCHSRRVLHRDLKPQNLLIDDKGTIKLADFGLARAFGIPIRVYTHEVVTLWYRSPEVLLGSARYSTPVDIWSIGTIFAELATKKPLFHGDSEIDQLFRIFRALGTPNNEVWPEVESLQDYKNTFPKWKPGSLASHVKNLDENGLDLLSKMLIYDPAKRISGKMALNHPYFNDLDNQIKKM
CDK1/cyclin B, sequence (P14635 whole entry partner, species assumed): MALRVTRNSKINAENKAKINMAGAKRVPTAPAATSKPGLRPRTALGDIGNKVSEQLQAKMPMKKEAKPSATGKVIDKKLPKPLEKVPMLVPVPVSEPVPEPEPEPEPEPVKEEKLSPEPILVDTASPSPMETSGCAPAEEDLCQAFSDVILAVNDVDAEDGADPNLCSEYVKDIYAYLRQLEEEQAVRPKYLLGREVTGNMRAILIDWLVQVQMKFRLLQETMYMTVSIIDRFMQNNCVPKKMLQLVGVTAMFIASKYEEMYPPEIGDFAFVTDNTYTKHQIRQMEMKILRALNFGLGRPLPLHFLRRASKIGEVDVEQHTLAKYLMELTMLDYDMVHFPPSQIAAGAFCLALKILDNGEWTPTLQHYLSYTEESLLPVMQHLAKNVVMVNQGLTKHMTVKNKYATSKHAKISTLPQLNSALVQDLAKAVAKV
CDK4/cyclin D1, sequence (P11802 whole entry): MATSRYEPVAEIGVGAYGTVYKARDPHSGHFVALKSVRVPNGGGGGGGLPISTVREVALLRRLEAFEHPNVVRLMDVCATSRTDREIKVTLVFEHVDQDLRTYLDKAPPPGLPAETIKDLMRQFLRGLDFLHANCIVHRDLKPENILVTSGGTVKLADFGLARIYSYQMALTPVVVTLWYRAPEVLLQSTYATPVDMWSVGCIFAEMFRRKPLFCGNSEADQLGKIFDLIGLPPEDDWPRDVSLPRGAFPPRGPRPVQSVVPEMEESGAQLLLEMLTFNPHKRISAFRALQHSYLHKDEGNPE
CDK4/cyclin D1, sequence (P24385 whole entry partner): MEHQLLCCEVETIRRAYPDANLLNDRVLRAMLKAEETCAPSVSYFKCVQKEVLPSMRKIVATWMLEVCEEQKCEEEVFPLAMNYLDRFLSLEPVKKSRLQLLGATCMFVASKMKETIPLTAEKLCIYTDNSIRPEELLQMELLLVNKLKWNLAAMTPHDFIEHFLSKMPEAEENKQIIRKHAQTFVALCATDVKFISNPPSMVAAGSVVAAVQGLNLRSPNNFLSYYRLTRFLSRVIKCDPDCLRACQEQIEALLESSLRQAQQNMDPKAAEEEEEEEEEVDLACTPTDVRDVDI

Turning to `C[C@@H]1CN(Cc2ccc(Nc3ncc4cc(C(=O)N(C)C)n(C5CCCC5)c4n3)nc2)C[C@H](C)N1` [Example 75, 7-Cyclopentyl-2-[5-((3S,5R)-3,5-dimethyl-piperazin-1-ylmethyl)-pyridin-2-ylamino]-7H-pyrrolo[2,3-d]pyrimidine-6-carboxylic acid dimethylamide], the IC50 at CDK4/cyclin D1 is 0.01 to 0.1 µM; on CDK1/cyclin B, more than 15 µM; at CDK2/cyclin A it was more than 15 µM.
Turning to `CN(C)C(=O)c1cc2cnc(Nc3ccc(CN4CCC(O)CC4)cn3)nc2n1C1CCCC1` [Example 76, 7-Cyclopentyl-2-[5-(4-hydroxy-piperidin-1-ylmethyl)-pyridin-2-ylamino]-7H-pyrrolo[2,3-d]pyrimidine-6-carboxylic acid dimethylamide], the results for the IC50 on CDK4/cyclin D1, on CDK1/cyclin B and at CDK2/cyclin A were 0.01 to 0.1 µM, more than 15 µM and more than 15 µM, respectively.
Consider `COCCN1CCN(Cc2ccc(Nc3ncc4cc(C(=O)N(C)C)n(C5CCCC5)c4n3)nc2)CC1` [Example 77, 7-Cyclopentyl-2-{5-[4-(2-methoxy-ethyl)-piperazin-1-ylmethyl]-pyridin-2-ylamino}-7H-pyrrolo[2,3-d]pyrimidine-6-carboxylic acid dimethylamide], for which the IC50 at CDK4/cyclin D1 was 0.01 to 0.1 µM; on CDK1/cyclin B, more than 15 µM; at CDK2/cyclin A, more than 15 µM.
As to `CCN1CCN(c2ccc(Nc3ncc4cc(C(=O)N(C)C)n(C5CCCC5)c4n3)nc2)CC1` [Example 78, 7-Cyclopentyl-2-[5-(4-ethyl-piperazin-1-yl)-pyridin-2-ylamino]-7H-pyrrolo[2,3d]pyrimidine-6-carboxylic acid dimethylamide], the values for the IC50 at CDK4/cyclin D1, on CDK1/cyclin B and on CDK2/cyclin A were 0.001 to 0.01 µM, more than 15 µM and more than 15 µM, respectively.
`CN(C)C(=O)c1cc2cnc(Nc3ccc(N4CCN(C5CCCC5)CC4)cn3)nc2n1C1CCCC1` [Example 79, 7-Cyclopentyl-2-[5-(4-cyclopentyl-piperazin-1-yl)-pyridin-2-ylamino]-7H-pyrrolo[2,3-d]pyrimidine-6-carboxylic acid dimethylamide]: the IC50 at CDK4/cyclin D1 was 0.01 to 0.1 µM; at CDK1/cyclin B it was more than 15 µM; at CDK2/cyclin A it was more than 15 µM.
For the compound `CC(C)N1CCC(c2ccc(Nc3ncc4cc(C(=O)N(C)C)n(C5CCCC5)c4n3)nc2)CC1` [Example 80, 7-Cyclopentyl-2-(1′-isopropyl-1′,2′,3′,4′,5′,6′-hexahydro-[3,4′]bipyridinyl-6-ylamino)-7H-pyrrolo[2,3-d]pyrimidine-6-carboxylic acid dimethylamide], the IC50 on CDK4/cyclin D1 is 0.01 to 0.1 µM; on CDK1/cyclin B, more than 15 µM; at CDK2/cyclin A it was more than 15 µM.
For `C[C@@H]1CN(c2ccc(Nc3ncc4cc(C(=O)N(C)C)n(C5CCCC5)c4n3)nc2)CCN1CCO` [Example 81, 7-Cyclopentyl-2-{5-[(R)-4-(2-hydroxy-ethyl)-3-methyl-piperazin-1-yl]-pyridin-2-ylamino}-7H-pyrrolo[2,3-d]pyrimidine-6-carboxylic acid dimethylamide], the results for the IC50 on CDK4/cyclin D1, on CDK1/cyclin B and on CDK2/cyclin A were 0.01 to 0.1 µM, more than 15 µM and more than 15 µM, respectively.
In the case of `C[C@H]1CN(c2ccc(Nc3ncc4cc(C(=O)N(C)C)n(C5CCCC5)c4n3)nc2)CCN1CCO` [Example 82, 7-Cyclopentyl-2-{5-[(S)-4-(2-hydroxy-ethyl)-3-methyl-piperazin-1-yl]-pyridin-2-ylamino}-7H-pyrrolo[2,3-d]pyrimidine-6-carboxylic acid dimethylamide], the IC50 on CDK4/cyclin D1 is 0.01 to 0.1 µM; at CDK1/cyclin B, more than 15 µM; at CDK2/cyclin A it was more than 15 µM.
In the case of `CN(C)C(=O)c1cc2cnc(Nc3ccc(N(C)CCO)cn3)nc2n1C1CCCC1` [Example 83, 7-Cyclopentyl-2-{5-[(2-hydroxy-ethyl)-methyl-amino]-pyridin-2-ylamino}-7H-pyrrolo[2,3-d]pyrimidine-6-carboxylic acid dimethylamide], the IC50 on CDK4/cyclin D1 is 0.1 to 1 µM; at CDK1/cyclin B, more than 15 µM; at CDK2/cyclin A it was more than 15 µM.
Take `CN(C)C(=O)c1cc2cnc(Nc3ccc(N4CCN(CC#N)CC4)cn3)nc2n1C1CCCC1` [Example 84, 2-[5-(4-Cyanomethyl-piperazin-1-yl)-pyridin-2-ylamino]-7-cyclopentyl-7H-pyrrolo[2,3-d]pyrimidine-6-carboxylic acid dimethylamide]: the IC50 on CDK4/cyclin D1 is 0.01 to 0.1 µM; on CDK1/cyclin B, more than 15 µM; at CDK2/cyclin A it was more than 15 µM.
As for `CN(C)C(=O)c1cc2cnc(Nc3ccc(CN4CCN(CCO)CC4)cn3)nc2n1C1CCCC1` [Example 85, 7-Cyclopentyl-2-{5-[4-(2-hydroxy-ethyl)-piperazin-1-ylmethyl]-pyridin-2-ylamino}-7H-pyrrolo[2,3-d]pyrimidine-6-carboxylic acid dimethylamide], the values for the IC50 at CDK4/cyclin D1, at CDK1/cyclin B and at CDK2/cyclin A were 0.01 to 0.1 µM, more than 15 µM and more than 15 µM, respectively.
Regarding `CN(C)C(=O)c1cc2cnc(Nc3ccc(N4CCN(CCF)CC4)cn3)nc2n1C1CCCC1` [Example 86, 7-Cyclopentyl-2-{5-[4-(2-fluoro-ethyl)-piperazin-1-yl]-pyridin-2-ylamino}-7H-pyrrolo[2,3-d]pyrimidine-6-carboxylic acid dimethylamide], the IC50 was 0.01 to 0.1 µM on CDK4/cyclin D1, more than 15 µM on CDK1/cyclin B and more than 15 µM at CDK2/cyclin A.
Take `CN(C)C(=O)c1cc2cnc(Nc3ccc(C(=O)N4CCC(O)CC4)cn3)nc2n1C1CCCC1` [Example 87, 7-Cyclopentyl-2-[5-(4-hydroxy-piperidine-1-carbonyl)-pyridin-2-ylamino]-7H-pyrrolo[2,3-d]pyrimidine-6-carboxylic acid dimethylamide]: the values for the IC50 at CDK4/cyclin D1, at CDK1/cyclin B and at CDK2/cyclin A were 0.01 to 0.1 µM, 13 µM and more than 15 µM, respectively.
For the compound `CN(C)CC(=O)N1CCN(c2ccc(Nc3ncc4cc(C(=O)N(C)C)n(C5CCCC5)c4n3)nc2)CC1` [Example 88, 7-Cyclopentyl-2-{5-[4-(2-dimethylamino-acetyl)-piperazin-1-yl]-pyridin-2-ylamino}-7H-pyrrolo[2,3-d]pyrimidine-6-carboxylic acid dimethylamide], the figures for the IC50 on CDK4/cyclin D1, on CDK1/cyclin B and on CDK2/cyclin A were 0.001 to 0.01 µM, more than 15 µM and more than 15 µM, respectively.
On to `CN(C)C(=O)c1cc2cnc(Nc3ccc(N4CCN(C(=O)CC5CCCCC5)CC4)cn3)nc2n1C1CCCC1` [Example 90, 2-{5-[4-(2-Cyclohexyl-acetyl)-piperazin-1-yl]-7H-pyridin-2-ylamino}-7-cyclopentyl-7H-pyrrolo[2,3-d]pyrimidine-6-carboxylic acid dimethylamide], for which the IC50 was 0.01 to 0.1 µM on CDK4/cyclin D1, more than 15 µM on CDK1/cyclin B and more than 15 µM on CDK2/cyclin A.
For the compound `CN(C)C(=O)c1cc2cnc(Nc3ccc(N4CCN(C(=O)CCC5CCCC5)CC4)cn3)nc2n1C1CCCC1` [Example 91, 7-Cyclopentyl-2-{5-[4-(3-cyclopentyl-propionyl)-piperazin-1-yl]-pyridin-2-ylamino}-7H-pyrrolo[2,3-d]pyrimidine-6-carboxylic acid dimethylamide], the IC50 on CDK4/cyclin D1 is 0.01 to 0.1 µM; at CDK1/cyclin B it was more than 15 µM; on CDK2/cyclin A it was more than 15 µM.
`CC(C)CN1CCN(c2ccc(Nc3ncc4cc(C(=O)N(C)C)n(C5CCCC5)c4n3)nc2)CC1` [Example 92, 7-Cyclopentyl-2-[5-(4-isobutyl-piperazin-1-yl)-pyridin-2-ylamino]-7H-pyrrolo[2,3-d]pyrimidine-6-carboxylic acid dimethylamide]: the figures for the IC50 on CDK4/cyclin D1, at CDK1/cyclin B and at CDK2/cyclin A were 0.001 to 0.01 µM, more than 15 µM and more than 15 µM, respectively.
